In ChEMBL document CHEMBL3879915, “Methods of inhibiting PRMT5” (2014):

Key:
PRMT5/MEP50 complex = PRMT5/MEP50 complex (Homo sapiens, UniProt O14744); assay: Inhibition of recombinant human fetal brain FLAG-tagged PRMT5/full length human testis 6His-tagged MEP50 expressed in baculovirus infected insect Sf9 cells using human histone H4 (1 to 15 residues) as substrate preincubated for 30 mins followed by [3H]-SAM addition
[1] = target: Protein arginine N-methyltransferase 5 (Homo sapiens, UniProt O14744); assay: Inhibition of PRMT5 in human Z138 cells assessed as decrease in di-methyl arginine levels after 96 hrs by Western blot method; type: cell-based
Chain of Protein arginine N-methyltransferase 5 (O14744 whole entry): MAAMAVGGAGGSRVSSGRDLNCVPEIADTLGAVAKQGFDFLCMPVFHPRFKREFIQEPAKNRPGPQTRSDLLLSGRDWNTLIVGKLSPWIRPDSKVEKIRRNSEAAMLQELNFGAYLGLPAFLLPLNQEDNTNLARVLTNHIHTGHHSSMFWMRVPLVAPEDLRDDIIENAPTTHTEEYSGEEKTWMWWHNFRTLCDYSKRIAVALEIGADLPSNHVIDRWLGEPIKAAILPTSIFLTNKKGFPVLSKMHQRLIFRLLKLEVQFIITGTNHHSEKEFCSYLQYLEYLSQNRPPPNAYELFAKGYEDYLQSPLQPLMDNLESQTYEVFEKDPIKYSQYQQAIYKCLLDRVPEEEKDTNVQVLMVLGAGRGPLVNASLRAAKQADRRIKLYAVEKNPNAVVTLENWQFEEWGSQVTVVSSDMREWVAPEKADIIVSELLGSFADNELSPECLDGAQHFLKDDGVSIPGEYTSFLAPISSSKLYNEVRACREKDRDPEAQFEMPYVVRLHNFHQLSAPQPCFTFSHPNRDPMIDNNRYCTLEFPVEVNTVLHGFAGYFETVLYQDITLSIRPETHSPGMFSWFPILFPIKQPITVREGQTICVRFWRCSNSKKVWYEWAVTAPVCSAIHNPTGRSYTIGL

[2] = Antiproliferative activity against human Z138 cells assessed as inhibition of cell viability after 5 days by Cell-Titer Glo assay; type: functional, cell-based; conditions: Z-138, 120 h

Chain of PRMT5/MEP50 complex (O14744 whole entry, the tested form may be a part): as the sequence (O14744 whole entry) above
Chain of PRMT5/MEP50 complex (Q9BQA1 whole entry, further chain, the tested form may be a part): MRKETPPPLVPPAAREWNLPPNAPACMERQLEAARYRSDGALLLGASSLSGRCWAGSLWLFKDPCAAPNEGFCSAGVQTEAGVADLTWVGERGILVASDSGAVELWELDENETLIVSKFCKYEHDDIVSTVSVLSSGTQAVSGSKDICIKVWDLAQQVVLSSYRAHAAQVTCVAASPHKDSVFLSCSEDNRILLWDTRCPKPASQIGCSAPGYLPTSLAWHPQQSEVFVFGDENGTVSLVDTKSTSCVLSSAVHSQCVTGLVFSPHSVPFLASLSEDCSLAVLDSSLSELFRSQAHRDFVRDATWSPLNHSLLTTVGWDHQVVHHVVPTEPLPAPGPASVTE

Row | Compound | IC50 (PRMT5/MEP50 complex) [nM] | EC50 [1] [nM] | EC50 [2] [nM]
1 | O=C(NCC(O)CN1CCc2ccccc2C1)c1ccc(-c2ccccn2)cc1 (stereo not given) | < 100 | < 100 | 101 to 1000
2 | CN1CCN(Cc2cccc(C(=O)NCC(O)CN3CCc4ccccc4C3)c2)CC1 (stereo not given) | < 100 | 101 to 1000 | 1000 to 10000
3 | O=C(NCC(O)CN1CCc2ccccc2C1)c1cccc(C2CCNC2)c1 (stereo not given) | < 100 | 101 to 1000 | > 20000
4 | OC(COc1cccc(-c2cc(C(F)(F)F)ccc2Cl)c1)CN1CCc2ccccc2C1 (stereo not given) | 101 to 1000 | 1000 to 10000 | 10000 to 40000
5 | O=C(NCC(O)CN1CCc2ccccc2C1)c1cccc(-c2ccncc2)c1 (stereo not given) | < 100 | < 100 | 1000 to 10000
6 | O=C1CN(c2cccc3cccnc23)CCN1CC(O)CN1CCc2ccccc2C1 (stereo not given) | < 100 | 101 to 1000 | 1000 to 10000
7 | O=C1COc2ccccc2N1CC(O)CN1CCc2ccccc2C1 (stereo not given) | 101 to 1000 | 101 to 1000 | > 20000
8 | CS(=O)(=O)Nc1ccc(C(=O)NCC(O)CN2CCc3ccccc3C2)cc1 (stereo not given) | 101 to 1000 | 101 to 1000 | 10000 to 50000
9 | O=C(NCC(O)CN1CCc2ccccc2C1)c1cccc(-c2cccnc2)c1 (stereo not given) | < 100 | < 100 | 1000 to 10000
10 | Cn1cnc2cc(-c3cccc(OCC(O)CN4CCc5ccccc5C4)c3)ccc21 (stereo not given) | 101 to 1000 | 101 to 1000 | 10000 to 40000
11 | O=C(NCC(O)CN1CCc2ccccc2C1)c1cccc(CN2CCNCC2)c1 (stereo not given) | < 100 | 101 to 1000 | 1000 to 10000
12 | CN(c1cccc(OCC(=O)NCC(O)CN2CCc3ccccc3C2)c1)S(C)(=O)=O (stereo not given) | 101 to 1000 | 101 to 1000 | > 20000
13 | CNCCOc1cccc(C(=O)NCC(O)CN2CCc3ccccc3C2)c1 (stereo not given) | 101 to 1000 | 1000 to 10000 | > 20000
14 | O=C1CN(c2ccccc2Cl)CCN1CC(O)CN1CCc2ccccc2C1 (stereo not given) | 101 to 1000 | 101 to 1000 | 10000 to 50000
15 | O=C(NCC(O)CN1CCc2ccccc2C1)c1cccnc1 (stereo not given) | 101 to 1000 | 101 to 1000 | 10000 to 50000
16 | O=C1CN(c2cncc(N3CCOCC3)c2)CCN1CC(O)CN1CCc2ccccc2C1 (stereo not given) | < 100 | 101 to 1000 | 1000 to 10000
17 | CC(=O)Nc1ccc(C(=O)NCC(O)CN2CCc3ccccc3C2)cc1 (stereo not given) | 101 to 1000 | 101 to 1000 | > 20000
18 | NC(=O)c1ccc(C(=O)NCC(O)CN2CCc3ccccc3C2)cc1 (stereo not given) | 101 to 1000 | 101 to 1000 | > 20000

Row | Compound | IC50 (PRMT5/MEP50 complex) [nM] | EC50 [1] [nM] | EC50 [2] [nM]
19 | CN(C)c1ccccc1N1CCN(C[C@H](O)CN2CCc3ccccc3C2)C(=O)C1 | 101 to 1000 | 101 to 1000 | 10000 to 50000
20 | O=C(NC[C@H](O)CN1CCc2ccccc2C1)Nc1ccccc1 | 101 to 1000 | 101 to 1000 | > 20000
21 | O=C1Cc2ccccc2N1CC(O)CN1CCc2ccccc2C1 (stereo not given) | 101 to 1000 | 101 to 1000 | > 20000
22 | O=C(NC[C@@H](O)CN1CCc2ccccc2C1)c1cccc(-c2ccccn2)c1 | < 100 | 101 to 1000 | 10000 to 50000
23 | OC(COc1ccc(C2CCCNC2)cc1)CN1CCc2ccccc2C1 (stereo not given) | < 100 | 101 to 1000 | 1000 to 10000
24 | Cc1ccc(N2CCN(CC(O)CN3CCc4ccccc4C3)C(=O)C2)cc1 (stereo not given) | 101 to 1000 | 101 to 1000 | > 20000
25 | CC(=O)c1cccc(-c2cccc(OCC(O)CN3CCc4ccccc4C3)c2)c1 (stereo not given) | 101 to 1000 | 1000 to 10000 | 10000 to 40000
26 | CC(=O)Nc1cccc(C(=O)NCC(O)CN2CCc3ccccc3C2)c1 (stereo not given) | 101 to 1000 | 101 to 1000 | 10000 to 50000
27 | O=C(NCC(O)CN1CCc2ccccc2C1)c1cccc(-c2ccccn2)c1 (stereo not given) | < 100 | < 100 | 1000 to 10000
28 | CN1CCN(c2cccc(C(=O)NCC(O)CN3CCc4ccccc4C3)c2)CC1 (stereo not given) | < 100 | 101 to 1000 | 10000 to 50000
29 | CS(=O)(=O)c1ccc(-c2cccc(OCC(O)CN3CCc4ccccc4C3)c2)cc1 (stereo not given) | 101 to 1000 | 1000 to 10000 | 10000 to 40000
30 | OC(CNc1cccc(CNC2CCCC2)c1)CN1CCc2ccccc2C1 (stereo not given) | 101 to 1000 | 1000 to 10000 | > 20000
31 | O=C(NCC(O)CN1CCc2ccccc2C1)c1cccc(N2CCOCC2)c1 (stereo not given) | < 100 | 101 to 1000 | 1000 to 10000
32 | O=C(NCC(O)CN1CCc2ccccc2C1)c1cccc(CNC2CCOCC2)c1 (stereo not given) | < 100 | 101 to 1000 | 10000 to 50000
33 | O=C1CN(c2cccc(F)c2)CCN1CC(O)CN1CCc2ccccc2C1 (stereo not given) | < 100 | 101 to 1000 | > 20000
34 | O=C(NCC(O)CN1CCc2ccccc2C1)c1cccc(-c2cc[nH]n2)c1 (stereo not given) | < 100 | 101 to 1000 | 1000 to 10000
35 | CC(Oc1cccc(CNC2CCCC2)c1)C(O)CN1CCc2ccccc2C1 (stereo not given) | 101 to 1000 | 101 to 1000 | 1000 to 10000
